The values below come from patent US20110218217A1, “PIPERIDYLPROPIONAMIDE DERIVATIVES USEFUL FOR THE TREATMENT OF CNS DISORDERS INCLUDING DEPRESSION AND PANIC DISORDER” (NEUROSEARCH A/S, priority 2008, published 2011).

Holding throughout (type): biochemical
The target of assay [1] is T1, reuptake of dopamine (DA) in synaptosomes (Rattus norvegicus, UniProt P23977).
T1 construct: in synaptosomes as described in WO 97/16451 (NeuroSearch A/S); from tissue
The assay can be described thus: Inhibition of DA reuptake in synaptosomes. The method, then: (§1) Compounds were tested for their ability to inhibit the reuptake of the monoamine neurotransmitters dopamine (DA) noradrenaline (NA) and serotonine (5-HT) in synaptosomes as described in WO 97/16451 (NeuroSearch A/S).
(§2) The test values are given as IC50 (the concentration (μM) of the test substance which inhibits the specific binding of ^3H-DA, ^3H-NA, or ^3H-5-HT by 50%).

Assay [2] addresses T2, reuptake of serotonine (5-HT) in synaptosomes (Rattus norvegicus, UniProt P31652).
T2 construct: in synaptosomes as described in WO 97/16451 (NeuroSearch A/S); from tissue
The assay can be described thus: Inhibition of 5-HT reuptake in synaptosomes. Conditions: 3H-5-HT, read-out: 5-HT-uptake IC50. The procedure: as §1, §2

The target in assay [3] is T3, reuptake of noradrenaline (NA) in synaptosomes (Rattus norvegicus, UniProt Q63380).
T3 construct: in synaptosomes as described in WO 97/16451 (NeuroSearch A/S); from tissue
Briefly: Inhibition of NA reuptake in synaptosomes. The procedure: as §1, §2

Where [4] appears, read: 3H-DA, synaptosomes, read-out: DA-uptake IC50.
[5] abbreviates: 3H-NA, synaptosomes, read-out: NA-uptake IC50.

Where two headings read alike, the source gives them in different places.

The term IC50 denotes the concentration that gives 50% inhibition.

T3 sequence (Q63380 1-617): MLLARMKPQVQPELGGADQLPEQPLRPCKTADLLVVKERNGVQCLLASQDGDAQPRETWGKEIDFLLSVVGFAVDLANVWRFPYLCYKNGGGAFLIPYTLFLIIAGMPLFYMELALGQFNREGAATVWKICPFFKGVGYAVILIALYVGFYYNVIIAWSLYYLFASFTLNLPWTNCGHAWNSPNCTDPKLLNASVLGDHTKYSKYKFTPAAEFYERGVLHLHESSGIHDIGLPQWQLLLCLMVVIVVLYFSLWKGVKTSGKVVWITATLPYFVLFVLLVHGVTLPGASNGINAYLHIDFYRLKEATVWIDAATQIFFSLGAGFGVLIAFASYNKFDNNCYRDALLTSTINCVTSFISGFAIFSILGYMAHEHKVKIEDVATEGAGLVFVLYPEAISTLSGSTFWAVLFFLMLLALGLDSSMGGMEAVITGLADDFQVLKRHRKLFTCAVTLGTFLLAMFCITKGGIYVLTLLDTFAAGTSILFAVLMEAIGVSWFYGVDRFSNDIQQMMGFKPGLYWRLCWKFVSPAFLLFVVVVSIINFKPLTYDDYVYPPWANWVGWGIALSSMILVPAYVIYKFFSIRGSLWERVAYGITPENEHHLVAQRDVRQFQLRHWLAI
T1 sequence (P23977 whole entry): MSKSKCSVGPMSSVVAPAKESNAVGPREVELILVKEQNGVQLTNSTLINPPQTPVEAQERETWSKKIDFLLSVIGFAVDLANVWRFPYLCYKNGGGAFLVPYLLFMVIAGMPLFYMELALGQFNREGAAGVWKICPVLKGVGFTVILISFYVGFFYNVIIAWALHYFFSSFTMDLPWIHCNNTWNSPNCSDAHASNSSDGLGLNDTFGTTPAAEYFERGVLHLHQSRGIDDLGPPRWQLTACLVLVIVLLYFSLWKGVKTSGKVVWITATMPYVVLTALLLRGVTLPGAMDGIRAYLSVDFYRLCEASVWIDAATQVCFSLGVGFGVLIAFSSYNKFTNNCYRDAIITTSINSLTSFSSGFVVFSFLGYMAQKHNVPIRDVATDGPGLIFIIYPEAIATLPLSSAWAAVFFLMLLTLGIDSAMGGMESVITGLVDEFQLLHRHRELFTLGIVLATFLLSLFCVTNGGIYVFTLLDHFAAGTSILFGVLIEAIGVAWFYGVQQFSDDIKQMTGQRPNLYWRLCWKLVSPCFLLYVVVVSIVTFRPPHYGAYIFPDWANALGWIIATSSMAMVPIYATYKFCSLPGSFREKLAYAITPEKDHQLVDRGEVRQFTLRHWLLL
T2 sequence (P31652 whole entry): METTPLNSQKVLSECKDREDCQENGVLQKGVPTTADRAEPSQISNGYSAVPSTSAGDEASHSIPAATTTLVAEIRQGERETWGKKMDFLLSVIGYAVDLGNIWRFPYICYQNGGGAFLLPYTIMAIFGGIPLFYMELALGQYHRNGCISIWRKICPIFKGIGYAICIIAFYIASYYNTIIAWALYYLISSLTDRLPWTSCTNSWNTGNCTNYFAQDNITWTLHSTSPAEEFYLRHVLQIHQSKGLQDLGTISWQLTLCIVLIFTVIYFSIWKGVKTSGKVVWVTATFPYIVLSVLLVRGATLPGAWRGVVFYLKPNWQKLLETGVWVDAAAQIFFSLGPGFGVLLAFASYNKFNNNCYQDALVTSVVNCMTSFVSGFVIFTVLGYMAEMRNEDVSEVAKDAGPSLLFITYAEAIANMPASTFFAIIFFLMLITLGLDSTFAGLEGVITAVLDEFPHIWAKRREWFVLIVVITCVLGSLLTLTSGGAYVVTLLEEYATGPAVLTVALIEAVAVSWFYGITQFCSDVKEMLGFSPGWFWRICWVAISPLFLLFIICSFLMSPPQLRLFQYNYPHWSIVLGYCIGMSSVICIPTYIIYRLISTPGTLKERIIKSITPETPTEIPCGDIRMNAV

Take `CCCN(C(=O)CCC1CCN(C)CC1)c1ccc(Cl)c(Cl)c1` [N-(3,4-Dichloro-phenyl)-3-(1-methyl-piperidin-4-yl)-N-propyl-propionamide]: the IC50 in assay [1] stood at 10 nM; in assay [2] it was 820 nM; in assay [3] it was 1 nM.

For the compound `CCCN(C(=O)CCC1CCNCC1)c1ccc(Cl)c(Cl)c1` [N-(3,4-Dichloro-phenyl)-3-piperidin-4-yl-N-propyl-propionamide], the IC50 is 9.8 nM in assay [1] (setting [4]), 1400 nM in assay [2] and 1.9 nM in assay [3] (setting [5]).

Consider `CCN(C(=O)CCC1CCN(C)CC1)c1ccc(Cl)c(Cl)c1` [N-(3,4-Dichloro-phenyl)-N-ethyl-3-(1-methyl-piperidin-4-yl)-propionamide], for which the IC50 in assay [1] (setting [4]) was 6.3 nM; in assay [2], above 1000 nM; in assay [3] (setting [5]), 6.5 nM.

`CCN(C(=O)CCC1CCNCC1)c1ccc(Cl)c(Cl)c1` [N-(3,4-Dichloro-phenyl)-N-ethyl-3-piperidin-4-yl-propionamide]: the IC50 amounted to 11 nM in assay [1] (setting [4]), 2100 nM in assay [2] and 11 nM in assay [3] (setting [5]).

Consider `CN1CCC(CCC(=O)N(C)c2ccc(Cl)c(Cl)c2)CC1` [N-(3,4-Dichloro-phenyl)-N-methyl-3-(1-methyl-piperidin-4-yl)-propionamide], for which the figures for the half-maximal inhibitory concentration (IC50) in assay [1] (setting [4]), in assay [2] and in assay [3] (setting [5]) were 330 nM, above 1000 nM and 87 nM, respectively.

On to `CN(C(=O)CCC1CCNCC1)c1ccc(Cl)c(Cl)c1` [N-(3,4-Dichloro-phenyl)-N-methyl-3-piperidin-4-yl-propionamide], for which the IC50 in assay [1] (setting [4]) was 220 nM; in assay [2], above 1000 nM; in assay [3] (setting [5]) it was 770 nM.

`CCN(C(=O)CCC1CCN(C)CC1)c1ccc(Br)c(Cl)c1` [N-(4-Bromo-3-chloro-phenyl)-N-ethyl-3-(1-methyl-piperidin-4-yl)-propionamide]: the half-inhibitory concentration (IC50) in assay [1] (setting [4]) was 6.8 nM; in assay [2], above 1000 nM; in assay [3] (setting [5]) it was 1.3 nM.

Regarding `CCN(C(=O)CCC1CCNCC1)c1ccc(Br)c(Cl)c1` [N-(4-Bromo-3-chloro-phenyl)-N-ethyl-3-piperidin-4-yl-propionamide], the 50% inhibitory concentration (IC50) in assay [1] (setting [4]) was 3.1 nM; in assay [2], above 1000 nM; in assay [3] (setting [5]), 2.6 nM.
